# Experiments:
# [1] = system: COVID-19 Delta virus-infected mice; assay: IL-1β and MCP-1 expression (RT-qPCR) in lung homogenates of COVID-19 Delta virus-infected mice; type: in vivo, hACE2 transgenic C57BL/6 mice; conditions: for IL-1β expression level in lung homogenate / MCP-1 expression level in lung homogenate: mRNA, blank group 1.00, Day 5 of infection
# [2] = system: mice with acute lung injury; assay: Inflammatory factors (ELISA) in lung tissue and alveolar lavage fluid of mice with LPS acute lung injury; type: in vivo, Balb/c mice; conditions: for IL-1β in alveolar lavage fluid / IL-1β in lung tissue / IL-6 in alveolar lavage fluid / IL-6 in lung tissue / IL-18 in alveolar lavage fluid / IL-18 in lung tissue / TNF-α in alveolar lavage fluid / TNF-α in lung tissue: 24 h after modeling
# Description: Balb/c male mice, weighing 20-22 g, were randomly divided into five groups according to body weights, with eight mice in each group: a blank control group (propylene glycol-0.5% carboxymethylcellulose sodium), a model group (LPS, 15 mg/kg), a ginsenoside Rd low-dose group (10 mg/kg), a ginsenoside Rd high-dose group (20 mg/kg), and a Dexamethasone group (5 mg/kg). Mice in each group were intraperitoneally injected; after 1 h of administration, except for the blank control group, the mice in each group were intratracheally instilled with 20 μg of LPS for modeling; and the blank control group was intratracheally instilled with an equal volume of PBS.
# After 1 h of administration, a mouse ALI model was established; each mouse was intraperitoneally injected with sodium pentobarbital at 30 mg/kg, anesthetized and fixed on an operating table dorsally; skin preparation was carried out on the neck; the skin was incised to expose the trachea; 20 μg of LPS was instilled into the trachea using a microglass syringe; and then the mouse was gently rotated head up on the operating table, such that the instilled liquid was evenly distributed in the mouse lungs, and the skin incision was sutured.
# After 24 h of modeling, anesthetized mice were intraperitoneally injected with sodium pentobarbital at 30 mg/kg; lung tissues of the mice were taken and rinsed repeatedly in pre-cooled normal saline; the lung tissues were blood-removed, wiped with filter paper, weighed, and added with normal saline according to a ratio of 1:9 (W:V=1 g:9 ml); a tissue homogenate was prepared with a homogenization machine under an ice water bath; and a supernatant of mouse lung tissue homogenate was taken.
# The mouse was anesthetized, and the trachea was separated; the whole lung was lavaged with 0.5 ml of pre-cooled normal saline, stayed for 1 min, and slowly pumped back with a syringe, and this process was repeated three times; and BLAF was collected, and centrifuged for 15 min at 4° C. and 1600 rpm/min.
# In strict accordance with the operating instructions of an enzyme-linked immunosorbent assay kit (ELISA), the contents of TNF-α, IL-1β, IL-6 and IL-18 in the supernatant of mouse lung tissue homogenate and the BLAF supernatant were detected.
# [3] = system: Chronic Obstructive Pulmonary Disease in Rats; assay: Serum TNF-α and IL-8 in rats with chronic obstructive pulmonary disease (LPS + smoking); type: in vivo, SD rats
# Description: After adaptive feeding (20-25° C., a humidity of 50-60%) for 1 week, the rats were randomly divided into a blank group, a model group, a positive control group, a ginsenoside Rd high-dose group, and a ginsenoside Rd low-dose group, with ten rats in each group.
# Model group: on the Day 1 and Day 14, each rat was intraperitoneally injected with 10% chloral hydrate (300 mg/kg) for anesthesia; the head was fixed in a low position; the glottis was exposed; lipopolysaccharide was quickly injected into the trachea; and the rat was kept upright, and swung left and right for 10-20 s, such that the lipopolysaccharide was evenly distributed in the two lungs. On the Days 2-13, and 15-28, the lungs were smoked in a closed organic glass box for 30 min every day, with 15 cigarettes per day.
# Positive control group: the animal was anesthetized, and intratracheally injected with lipopolysaccharide, wherein smoking conditions and time were the same as those of the model group; and after tracheal injection of lipopolysaccharide for two weeks, the animal was administrated with Simvastatin by gavage (2.5 mg/kg), and killed after six weeks, and serum was collected.
# In accordance with the instructions, the levels of TNF-α and IL-8 in the serum were detected by enzyme-linked immunosorbent assay. The data was expressed as x±s, p<0.05, which meant that it was statistically significant.
# [4] = 10 mg/kg intraperitoneal 1 h before LPS
# [5] = 20 mg/kg intraperitoneal 1 h before LPS
smiles,measurement,setting,value
"CC(C)=CCC[C@](C)(O[C@@H]1O[C@H](CO)[C@@H](O)[C@H](O)[C@H]1O)[C@H]1CC[C@]2(C)[C@@H]1[C@H](O)C[C@@H]1[C@@]3(C)CC[C@H](O[C@@H]4O[C@H](CO)[C@@H](O)[C@H](O)[C@H]4O[C@@H]4O[C@H](CO)[C@@H](O)[C@H](O)[C@H]4O)C(C)(C)[C@@H]3CC[C@]12C [Ginsenoside Rd, ginsenoside Rd]",IL-1β and MCP-1 inflammatory factors,[1]; compared with the virus model group,significantly reduced
same,IL-1β expression level in lung homogenate,[1]; 10 mg/kg gavage,20.88 ± 6.42
same,MCP-1 expression level in lung homogenate,[1]; 10 mg/kg gavage,18.71 ± 13.75
same,IL-1β expression level in lung homogenate,[1]; 20 mg/kg gavage,10.13 ± 6.68
same,MCP-1 expression level in lung homogenate,[1]; 20 mg/kg gavage,7.15 ± 9.36
same,IL-1β in alveolar lavage fluid,[2]; [4],79.63 ± 21.33 ng/L
same,IL-1β in lung tissue,[2]; [4],80.23 ± 18.08 ng/L
same,IL-6 in alveolar lavage fluid,[2]; [4],39.37 ± 9.12 ng/L
same,IL-6 in lung tissue,[2]; [4],84.70 ± 10.84 ng/L
same,IL-18 in alveolar lavage fluid,[2]; [4],81.20 ± 21.27 ng/L
same,IL-18 in lung tissue,[2]; [4],94.03 ± 15.22 ng/L
same,TNF-α in alveolar lavage fluid,[2]; [4],344.09 ± 61.08 ng/L
same,TNF-α in lung tissue,[2]; [4],98.14 ± 14.48 ng/L
same,IL-1β in alveolar lavage fluid,[2]; [5],49.51 ± 6.89 ng/L
same,IL-1β in lung tissue,[2]; [5],30.52 ± 13.42 ng/L
same,IL-6 in alveolar lavage fluid,[2]; [5],29.53 ± 8.99 ng/L
same,IL-6 in lung tissue,[2]; [5],36.81 ± 13.45 ng/L
same,IL-18 in alveolar lavage fluid,[2]; [5],44.64 ± 17.91 ng/L
same,IL-18 in lung tissue,[2]; [5],37.54 ± 15.80 ng/L
same,TNF-α in alveolar lavage fluid,[2]; [5],186.04 ± 75.00 ng/L
same,TNF-α in lung tissue,[2]; [5],46.88 ± 19.52 ng/L
same,"contents of TNF-α, IL-1β, IL-6 and IL-18 in the lung tissues and BLAF",[2]; compared with the model group,significantly reduce
same,"effect on TNF-α, IL-1β, IL-6 and IL-18 contents compared with Dexamethasone","[2]; high-dose group 20 mg/kg, P<0.01",better than that of Dexamethasone
same,IL-8 in serum,[3]; high-dose 10 mg/kg,24.88 ± 14.67
same,TNF-α in serum,[3]; high-dose 10 mg/kg,12.13 ± 17.06
same,efficacy on serum inflammatory factors compared with Simvastatin,[3]; high-dose group,considerable to that of Simvastatin
same,IL-8 in serum,[3]; low-dose 5 mg/kg,30.97 ± 13.70
same,TNF-α in serum,[3]; low-dose 5 mg/kg,12.92 ± 10.20

# From patent publication US20240366644A1, “ANTI-INFLAMMATORY APPLICATION OF GINSENOSIDE RD” (priority 2022, published 2024)
